# “Also recorded” adds a separate entry of the source. Marks after values point to notes of the source that are not given here. Peptide text beside a SMILES is read from it.
# Experiments:
# [1] = system: Brown Norway rats (Rattus norvegicus); test: Optic nerve transection in rats, optic nerve fiber counting; type: in vivo; settings: for Fiber Number / Percent Difference (fiber number, transected vs normal eye): 10 mg/kg i.p. daily
# Method: (§1) All experiments complied with the Association for Research in Vision and Ophthalmology Statement for the Use of Animals in Ophthalmic and Vision Research. 82 male Brown Norway rats (Rattus norvegicus), each weighing approximately 250 gm, were treated using procedures approved by the Animal Care Committee of the Johns Hopkins University School of Medicine. The rats were housed with a 12 hour light/12 hour dark cycle and fed ad libitum.
# The optic nerve was transected unilaterally in 26 rats under intraperitoneal pentobarbital anesthesia. The conjunctiva was opened with scissors and the optic nerve was exposed by traction on extraocular muscles. The transection was performed with microscissors 5 mm posterior to the globe, with specific attention to avoidance of injury to major ocular blood vessels. Immediately after transection, the retina was examined ophthalmoscopically to assure that the retinal arterial blood supply was not disrupted. The conjunctiva was closed with absorbable suture and the eye dressed with antibiotic ointment. Beginning on the day of transection, the rats were treated daily with intraperitoneal injections of either a vehicle (9 rats with 50 mM HEPES-buffered saline) or a NAALADase inhibitor (8 rats with 10 mg/kg of Compound A and 9 rats with 10 mg/kg of Compound B). 5 saline treated rats, 3 Compound A treated rats and 4 Compound B treated rats were sacrificed at 2 weeks, and the remaining rats at 4 weeks, after transection.
# (§2) The rats were sacrificed by exsanguination under deep pentobarbital anesthesia. They were perfused through the heart with 2% paraformaldehyde/2% glutaraldehyde in 0.1 M phosphate buffer, pH 7.2, and the eyes with attached optic nerves were removed. Cross-sections of the optic nerves from both experimental (glaucoma or transection) and control eyes was removed 1.5 mm posterior to the globe, 1 mm in thickness, and post-fixed in 2% osmium tetroxide in buffer. These were processed into epoxy resin, sectioned at 1 micron and stained with toluidine blue.
# (§3) The area of each optic nerve cross-section was measured by outlining its outer border at 10× magnification on an image analysis system (Universal Imaging Corp., Westchester, Pa.) with Synsys digital camera and Metamorph software. Three area measurements were taken and the mean value was determined. To measure the density and fiber diameter distributions, images were captured with a 100× phase contrast objective from 10 different areas of each nerve. These were edited to eliminate non-neural objects and the size of each axon internal to the myelin sheath (its minimum diameter) and the density of axons/square mm were calculated for each image and nerve. The mean density was multiplied by total nerve area to yield fiber number for each nerve. The total fiber number in glaucoma or transection nerves was compared to the normal, fellow eye of each rat to yield a percent loss value. The number of axons counted among the 10 images was approximately 20% of the 80-90,000 axons in normal rat nerves. The person measuring the number of axons was masked to the protocol conducted on the nerves.
# Percent Difference=mean percent difference in fiber number between glaucoma and normal eye in each rat (positive value indicates fewer fibers in the glaucoma eye).
# [2] = system: Brown Norway rats (Rattus norvegicus); test: Experimental rat glaucoma (unilateral IOP elevation), optic nerve fiber counting; type: in vivo; settings: 10 mg/kg i.p. daily; for Fiber Number: glaucoma eye optic nerve; for Percent Difference (fiber number, glaucoma vs normal eye): positive value = fewer fibers in glaucoma eye
# Method: as §1
# Unilateral elevation of intraocular pressure (“IOP”) was produced in 56 rats by microinjection of hypertonic saline into episcleral veins, following procedures described in Morrison, J. et al., IOVS (March 1998) 39:526-531. Beginning on the day of IOP elevation, the rats were treated daily with intraperitoneal injections of either a vehicle (23 rats with 50 mM HEPES-buffered saline) or a NAALADase inhibitor (11 rats with 10 mg/kg of Compound A and 22 rats with 10 mg/kg of Compound B). 11 saline treated rats, 11 Compound A treated rats and 11 Compound B treated rats were sacrificed at 8 weeks, and the remaining rats at 12 weeks, after initial IOP elevation.
# as §2
# as §3, with “the nerves. […]” for “the nerves.”
# [3] = system: BB/W rats; test: Retinal disorder (diabetic retinopathy) in BB/W rats: BM thickness and E/P ratio after 6 months of daily treatment; type: in vivo, rat; settings: for BM THICKNESS (nm) ± SD: retinal capillaries
# Method: Four groups of rats received daily insulin injections to maintain their glucose levels at about 350 mg/dl. Starting at the onset of hyperglycemia, NAALADase inhibitor 2-(3-sulfanylpropyl)-pentanedioic acid (Compound B) was administered daily for 6 months to one group of BB/W rats at a dose of 10 mg/kg and to a second group of BB/W rats at a dose of 30 mg/kg. A third group of BB/W rats and a fourth group of non-diabetic rats received daily vehicle treatment (50 mM Hepes buffered saline).
# After 6 months of treatment with Compound B or vehicle treatment, the rats were sacrificed and their eyes were removed. From each rat, one eye was processed for elastase digest while the other eye was processed for transmission electron microscopy (TEM) and basement membrane (BM) thickness.
# Retinal digests were prepared using elastase on retinas as described in Layer, N., Invest Ophthalmol Vis Sci (1993) 34:2097. Eyes were removed from recently killed BB/W rats (n=30) and age-matched transgenic controls (n=12). The retinas (n=12) were fixed at room temperature by immersing the whole eye (slit at limbus) in 4% (w/v) paraformaldehyde in 50 mmol/L Na—K phosphate buffer with 8% sucrose. The fixed retinas were rinsed in deionized water and were incubated for 3 minutes in a 37° C. agitating water bath in 40 units/mL elastase in Na—K phosphate buffer with 150 mmol/L NaCl and 5 mmol/L ethylenediamine tetraacetic acid (EDTA), pH 6.5. The tissues were washed overnight in 100 mmol/L Tris-HCL (pH 8.5) and then transferred to deionized water for removal of the loosened vitreous and digested neural elements by gentle agitation using the sides of closed forceps and the sides and ends of very fine brushes. After all loose tissues were removed, the retinas were incubated once more in fresh enzyme for 3 minutes and then subjected to a second overnight wash at room temperature in Tns-HCl buffer. On the third day, the retinas were again transferred to deionized water for additional removal of digested neural elements. The vascular network that was completely free of nonvascular elements was mounted flat by flotation in Ca^2+ and Mg^2+ free Dulbecco's Phosphate-Buffered Saline (PBS) on siliconized slides (#S1308, Oncor, Gaithersburg, Md.). After air drying in a dust free environment, the mounts of the retinal microvasculature were stained using periodic acid Schiff reaction and hematoxylin counterstaining, as described in Luna, L., ed. Manual of Histologic Staining Methods of the Armed Forces Institute of Pathology (1968) McGraw-Hill, New York, N.Y. The preparations were then examined by light microscopy and photographed.
# The stained and intact retinal whole mounts were coded and counted, as described in Cuthbertson, R., Invest Ophthalmol Vis Sci. (1986) 27:1659-1664).
# Ten fields at ×100 magnification were counted for endothelial and pericyte cells using previously described morphologic criteria (see Kuwabara, T., Arch Ophthalmol. (1960) 64:904-911). In every sample, at least 200 cells were counted from the mid zone of the retina. Mean values for endothelial cell/pericyte (E/P) ratios were initially calculated in 3 retinas from each of the 4 groups of rats.
# Each eye was fixed in 4% glutaraldehyde and dissected free of sclera and choroids, then trimmed and postfixed in 1% osmium tetroxide. After dehydration and embedding, thin sections were stained with uranyl acetate and lead citrate. Initially, BM thickness of retinal capillaries from 3 non-diabetic rats receiving vehicle, 3 diabetic animals receiving 10 mg/kg Compound B, and 3 diabetic rats receiving 30 mg/kg Compound B were compared with 3 diabetic rats receiving a vehicle. At least 10 capillaries per eye from the inner nuclear and plexiform layers were photographed at a magnification of 10,000×. Exact magnification was determined for each set of negatives with a 28,800 line/inch calibration grid. Negatives were enlarged 3×. […]
# [4] = system: C57/BL mice; test: Acute effects in the tail-flick test (Experiment 2); type: in vivo
# Method: (§4) Male C57/BL mice (IMP, Lodz, Poland), 22-24 g of body weight were group-housed in the standard laboratory cages and kept in a temperature-controlled colony room (21±2° C.) with a 12-hour light/dark cycle (light on: 07:00, off: 19:00). Commercial food and tap water were available ad libitum. Each experimental group consisted of 7-28 mice per treatment. All mice were used only once.
# (§5) The intensity of the heat stimulus was adjusted so that the baseline tail-flick latency was ˜3 seconds. […] Each response assessment consisted of two separate measurements taken at different portions of the tail (spaced by 1.5-2 cm) and separated by 15 seconds. The mean of these responses was used for subsequent comparisons.
# The N is given in brackets. Presented in FIG. 5 are mean±S.E.M. Area Under Curve (AUC) values calculated on the same data.
# [5] = system: C57/BL mice; test: animal or person; type: in vivo; settings: for ED50: Mus musculus, sc
# Method: as §4, §5
# [6] = system: NAALADase; settings: NAAG as substrate of NAALADase; cited from earlier work
# [7] = 2 weeks survival after transection
# [8] = 4 weeks survival after transection
# [9] = diabetic BB/W rats, 10 mg/kg daily for 6 months, 10 mg/kg
# [10] = diabetic BB/W rats, 10 mg/kg daily for 6 months, listed as NAALADASE INHIBITOR, 10 mg/kg
# [11] = diabetic BB/W rats, 30 mg/kg daily for 6 months, 30 mg/kg
# [12] = diabetic BB/W rats, 30 mg/kg daily for 6 months, listed as NAAALADASE INHIBITOR, 30 mg/kg
# [13] = high dose 30 mg/kg, vs diabetic vehicle
# [14] = low dose 10 mg/kg, vs diabetic vehicle
structure (smiles),measurement,setting,value
"O=C(O)CCC(CCCS)C(=O)O (stereo not drawn) [Compound B, 2-(3-sulfanylpropyl)pentanedioic acid]",remaining axons relative to saline-treated rats,[1]; 2 weeks after transection,twice
same,Fiber Number,[1]; [7],"19,550 ± 11,383"
same,"Percent Difference (fiber number, transected vs normal eye)",[1]; [7],75.3 ± 14.8%
same,Fiber Number,[1]; [8],"5,162 ± 5,017"
same,"Percent Difference (fiber number, transected vs normal eye)",[1]; [8],93.4 ± 6.2%
same,Fiber Number,[2]; 8 week group,80785 ± 2121**
same,"Percent Difference (fiber number, glaucoma vs normal eye)",[2]; 8 week group,−0.82 ± 2.97%
same,Fiber Number,[2]; 12 week group,90504 ± 1718
same,"Percent Difference (fiber number, glaucoma vs normal eye)",[2]; 12 week group,−3.21 ± 2.86%
same,BM THICKNESS (nm) ± SD,[3]; [9],82.3±4.07 nm
same,BM THICKNESS (nm) ± SD,[3]; [10],82.3 ± 4.07 nm
same,E/P RATIO (endothelial cell/pericyte),[3]; [9],2.5±0.5
same,E/P RATIO (endothelial cell/pericyte),[3]; [10],2.5 ± 0.5
same,BM THICKNESS (nm) ± SD,[3]; [11],71.7±4.07 nm
same,BM THICKNESS (nm) ± SD,[3]; [12],71.7 ± 4.07 nm
same,E/P RATIO (endothelial cell/pericyte),[3]; [11],2.0±0.9
same,E/P RATIO (endothelial cell/pericyte),[3]; [12],2.0 ± 0.4
same,effect on body weight,"[3]; diabetic BB/W rats, 6 months of treatment",no effect
same,reduction in BM thickness,[3]; [13],29.0%
same,reduction of endothelial cell to pericyte ratios,[3]; [13],33.0%
same,decrease in BM thickness,[3]; [14],18.5%
same,reduction of endothelial cell to pericyte ratios,[3]; [14],16.7%
"O=C(O)CCC(CP(=O)(O)O)C(=O)O (stereo not drawn) [Compound 2-PMPA, 2-(phosphonomethyl)pentanedioic acid]",effect on antinociceptive effects of morphine,[4]; 100 mg/kg 2-PMPA i.p. 30 min before 1.5 or 3 mg/kg morphine s.c.,did not affect antinociceptive effects; also recorded: did not differ
same,tail-flick responses (AUC) compared to placebo+placebo treatment,[4]; 100 mg/kg of 2-PMPA i.p. + placebo,did not affect tail-flick responses; also recorded: did not differ from placebo+placebo treatment
same,effect on development of morphine tolerance,[5]; 50 or 100 mg/kg of 2-PMPA prior to each dose of morphine,attenuated the development of morphine tolerance
"CN1CC[C@]23c4c5ccc(O)c4O[C@H]2[C@@H](O)C=C[C@H]3[C@H]1C5 [Morphine, morphine]",ED50,"[4]; Mus musculus, sc, read-out: antinociceptive ED50 dose",3 mg/kg
same,ED50,"[5]; 24 h, read-out: Test #1 ED50 (morphine antinociceptive potency)",1.49 ± 0.26 mg/kg
same,ED50,[5]; read-out: Test #2 ED50 (morphine antinociceptive potency),8.85 ± 2.22 mg/kg
"CC12CC3CC(C)(C1)CC(N)(C3)C2 [Memantine, memantine]",effect on development of morphine tolerance,"[5]; mouse, in vivo",attenuated the development of morphine tolerance; also recorded: produced an inhibition of morphine tolerance
"CC(=O)N[C@@H](CC(=O)O)C(=O)N[C@@H](CCC(=O)O)C(=O)O [NAAG, N-acetyl-aspartyl-glutamate] (Ac-Asp-Glu-OH)",Km,[6],0.54 µM
